These results are taken from patent US8809365B2, “1-substituted 2-azabicyclo [3.1.1] heptyl derivatives useful as nicotinic acetylcholine receptor modulators for treating neurologic disorders” (Universiteit Gent, priority 2009, dated 2014).

For assay [1], the target named is human α7 neuronal nicotinic receptor (Homo sapiens, UniProt P36544). Description: biochemical. In kind it is binding. The conditions noted are these: read-out: % inhibition N neuronal alpha-BGTX-sensitive (alpha 7) (antagonist radioligand).
human α7 neuronal nicotinic receptor, sequence (P36544 23-502): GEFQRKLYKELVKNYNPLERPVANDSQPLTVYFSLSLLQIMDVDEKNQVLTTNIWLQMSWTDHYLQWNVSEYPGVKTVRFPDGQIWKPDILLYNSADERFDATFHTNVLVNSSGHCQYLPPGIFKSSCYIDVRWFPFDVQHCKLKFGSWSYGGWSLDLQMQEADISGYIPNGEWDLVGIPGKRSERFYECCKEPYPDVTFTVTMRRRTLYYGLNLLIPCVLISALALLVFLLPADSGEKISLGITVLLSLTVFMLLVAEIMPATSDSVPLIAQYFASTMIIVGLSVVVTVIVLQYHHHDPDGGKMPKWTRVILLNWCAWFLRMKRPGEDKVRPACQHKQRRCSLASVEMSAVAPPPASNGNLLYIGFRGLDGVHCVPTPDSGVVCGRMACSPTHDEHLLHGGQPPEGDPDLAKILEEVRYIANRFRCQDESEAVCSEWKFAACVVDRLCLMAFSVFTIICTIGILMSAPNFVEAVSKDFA
Assay [2] has as its target human muscle-type nicotinic receptor (Homo sapiens, UniProt P02708+P07510+Q07001). The experiment in a line: biochemical. Particulars: read-out: % inhibition N muscle-type (h) (antagonist radioligand). The assay is classed as binding.
Assay [3] has as its target T1, human dopamine D1 receptor (Homo sapiens, UniProt P21728).
T1 construct: expressed in transfected cells; host or cells: CHO cells (membrane homogenates)
Description: Human dopamine D1 receptor radioligand binding assay (antagonist radioligand). Particulars: 1 μmmole test compound; 0.3 nM [3H]SCH 23390; transfected CHO cell membranes; one single experiment; 0.0003 µM. As to the method:
Human Dopamine D1 Receptor (Antagonist Radioligand):
The purpose is to evaluate the affinity of compounds for the human dopamine D1 receptor in transfected CHO cells determined in a radioligand binding assay according to Zhou et al in Nature (1990) 347:76. The experimental protocol is as follows. Cell membrane homogenates (48 μg protein) are incubated for 60 minutes at 22° C. with 0.3 nM [^3H]SCH 23390 in the absence or presence of the test compound in a buffer containing 50 mM Tris-HCl (pH 7.4), 5 mM KCl, 5 mM MgCl2, 1.5 mM CaCl2 and 5 mM EDTA. Non-specific binding is determined in the presence of 1 μM SCH 23390. Following incubation, the samples are filtered rapidly under vacuum through glass fiber filters (GF/B, Packard) presoaked with 0.3% PEI and rinsed several times with ice-cold 50 mM Tris-HCl using a 96-sample cell harvester (Unifilter, Packard). The filters are dried then counted for radioactivity in a scintillation counter (Topcount, Packard) using a scintillation cocktail (Microscint 0, Packard). The results are expressed as a percent inhibition of the control radioligand specific binding. The standard reference compound is SCH 23390, which is tested in each experiment at several concentrations to obtain a competition curve from which its IC50 is calculated, and from which the % inhibition at 1 μM as indicated in the following table is obtained.

For assay [4] the following is noted: relative to morphine; cited from earlier work.

human muscle-type nicotinic receptor, sequence (P07510 23-517): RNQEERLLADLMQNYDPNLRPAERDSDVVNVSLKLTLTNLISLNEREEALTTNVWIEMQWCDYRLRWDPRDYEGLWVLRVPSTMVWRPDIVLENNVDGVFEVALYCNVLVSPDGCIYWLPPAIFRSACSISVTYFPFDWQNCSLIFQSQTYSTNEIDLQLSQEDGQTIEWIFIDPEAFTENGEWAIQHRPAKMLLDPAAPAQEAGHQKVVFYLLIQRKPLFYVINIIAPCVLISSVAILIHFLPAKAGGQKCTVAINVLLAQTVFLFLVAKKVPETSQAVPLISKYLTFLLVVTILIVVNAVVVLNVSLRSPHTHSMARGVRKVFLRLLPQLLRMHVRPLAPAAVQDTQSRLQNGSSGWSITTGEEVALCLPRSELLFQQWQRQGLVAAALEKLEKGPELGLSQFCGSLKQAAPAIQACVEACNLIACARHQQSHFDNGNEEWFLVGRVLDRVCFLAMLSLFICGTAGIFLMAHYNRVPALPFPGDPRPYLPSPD
human muscle-type nicotinic receptor, sequence (Q07001 22-517): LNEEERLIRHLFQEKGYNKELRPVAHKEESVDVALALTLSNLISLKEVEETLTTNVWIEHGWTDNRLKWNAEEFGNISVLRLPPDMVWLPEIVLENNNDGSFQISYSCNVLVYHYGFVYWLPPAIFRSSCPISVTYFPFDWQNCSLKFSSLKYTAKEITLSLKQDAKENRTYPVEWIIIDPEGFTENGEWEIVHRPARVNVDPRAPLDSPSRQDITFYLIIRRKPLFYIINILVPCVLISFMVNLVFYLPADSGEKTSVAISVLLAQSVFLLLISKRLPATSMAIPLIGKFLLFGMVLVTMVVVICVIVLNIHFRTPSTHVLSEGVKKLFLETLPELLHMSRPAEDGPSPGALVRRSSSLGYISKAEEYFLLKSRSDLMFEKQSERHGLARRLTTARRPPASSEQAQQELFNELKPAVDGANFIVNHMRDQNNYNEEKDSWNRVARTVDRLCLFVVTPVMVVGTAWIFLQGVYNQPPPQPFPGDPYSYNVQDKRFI
human muscle-type nicotinic receptor, sequence (P02708 21-457): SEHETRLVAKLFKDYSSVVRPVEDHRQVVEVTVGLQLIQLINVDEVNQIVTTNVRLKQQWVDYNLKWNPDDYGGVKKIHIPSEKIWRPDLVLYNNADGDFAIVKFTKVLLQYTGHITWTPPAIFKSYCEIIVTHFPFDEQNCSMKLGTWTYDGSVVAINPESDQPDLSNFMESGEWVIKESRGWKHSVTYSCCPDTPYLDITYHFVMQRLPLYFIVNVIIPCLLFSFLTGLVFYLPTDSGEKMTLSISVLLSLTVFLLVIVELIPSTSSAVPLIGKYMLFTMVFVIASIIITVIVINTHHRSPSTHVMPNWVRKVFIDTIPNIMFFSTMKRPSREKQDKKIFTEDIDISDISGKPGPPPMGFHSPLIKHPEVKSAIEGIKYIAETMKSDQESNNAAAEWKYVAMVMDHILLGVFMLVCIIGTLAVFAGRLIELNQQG
human muscle-type nicotinic receptor, sequence (P11230 24-501, further chain): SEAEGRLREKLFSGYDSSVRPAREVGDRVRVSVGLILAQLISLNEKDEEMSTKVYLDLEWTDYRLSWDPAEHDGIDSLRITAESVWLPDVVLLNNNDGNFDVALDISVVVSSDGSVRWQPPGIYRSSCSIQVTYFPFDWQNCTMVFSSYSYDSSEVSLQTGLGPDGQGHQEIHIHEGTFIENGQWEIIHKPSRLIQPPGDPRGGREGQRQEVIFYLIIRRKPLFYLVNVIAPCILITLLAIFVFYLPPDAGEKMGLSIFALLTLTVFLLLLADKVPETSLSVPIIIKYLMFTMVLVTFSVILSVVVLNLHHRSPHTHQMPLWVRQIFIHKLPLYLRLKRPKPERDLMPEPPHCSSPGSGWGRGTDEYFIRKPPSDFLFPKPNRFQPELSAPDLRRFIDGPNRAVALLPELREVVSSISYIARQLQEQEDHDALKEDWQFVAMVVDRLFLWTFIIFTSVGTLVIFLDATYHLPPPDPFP
T1 sequence (P21728 whole entry): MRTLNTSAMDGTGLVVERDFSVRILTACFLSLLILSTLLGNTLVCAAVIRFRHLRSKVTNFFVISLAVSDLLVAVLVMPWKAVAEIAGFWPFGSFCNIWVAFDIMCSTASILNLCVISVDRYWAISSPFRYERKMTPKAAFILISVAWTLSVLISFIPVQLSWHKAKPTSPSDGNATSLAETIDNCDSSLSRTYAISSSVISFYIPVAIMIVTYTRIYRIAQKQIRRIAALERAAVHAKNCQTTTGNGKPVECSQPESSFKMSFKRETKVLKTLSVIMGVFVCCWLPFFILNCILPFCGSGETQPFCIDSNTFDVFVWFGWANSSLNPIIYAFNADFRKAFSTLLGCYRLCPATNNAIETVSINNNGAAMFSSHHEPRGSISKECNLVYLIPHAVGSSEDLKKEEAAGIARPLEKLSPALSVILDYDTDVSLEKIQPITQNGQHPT

In the case of `CCN1CCC2CC1(C(O)c1cccnc1)C2` (stereo not shown) [Compound 11], the inhibition at 50 pM in assay [1] was -1%. In addition, in assay [2], the inhibition at 0.0005 µM was 17%.

In the case of `CCN1CCC2CC1(C(O)c1cccnc1)C2` (stereo not shown) [Compound 19a], in assay [3], the “% inhibition D1 (h) (antagonist radioligand)” value amounted to 9%.

For `Clc1ccc(C2CC3CCC2N3)cn1` (stereo not shown) [epibatidine], in assay [4], the “analgesic potency higher than that of morphine” value is “about 200 fold”.

For orientation: inhibition means the drop in the measured response relative to a control, in per cent.
